Results on five molecules are retold here after PMC10577698, “Development of Novel ^11C-Labeled Selective Orexin-2 Receptor Radioligands for Positron Emission Tomography Imaging” (ACS Medicinal Chemistry Letters, 2023).

Like-named read-outs stand apart in the source and are kept apart here.

One series deals with T1, CYP1A2 (Homo sapiens, UniProt P05177).
T1 sequence (P05177 1-516): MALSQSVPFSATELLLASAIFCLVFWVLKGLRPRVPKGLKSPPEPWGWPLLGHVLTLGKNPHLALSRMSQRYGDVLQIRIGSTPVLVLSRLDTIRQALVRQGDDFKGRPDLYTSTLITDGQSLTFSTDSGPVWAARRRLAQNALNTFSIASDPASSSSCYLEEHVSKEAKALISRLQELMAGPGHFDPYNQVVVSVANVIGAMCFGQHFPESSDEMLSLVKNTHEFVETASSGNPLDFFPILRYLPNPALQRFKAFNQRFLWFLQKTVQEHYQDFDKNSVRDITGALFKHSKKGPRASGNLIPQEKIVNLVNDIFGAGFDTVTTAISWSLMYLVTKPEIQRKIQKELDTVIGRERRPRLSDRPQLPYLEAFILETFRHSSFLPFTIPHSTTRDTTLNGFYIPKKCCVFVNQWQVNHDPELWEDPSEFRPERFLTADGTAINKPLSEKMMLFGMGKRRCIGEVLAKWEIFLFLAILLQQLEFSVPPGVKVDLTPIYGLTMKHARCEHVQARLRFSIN
The experiment in a line: CYP450 inhibition assay.

Series [1] has as its target peripheral benzodiazepine receptor (Rattus norvegicus, UniProt P16257). The experiment in a line: Off-target binding (NIMH PDSP), peripheral benzodiazepine receptor.
The next series addresses CYP2D6 (Homo sapiens, UniProt P10635). The experiment in a line: biochemical.
The next series concerns the target CYP3A4 (Homo sapiens, UniProt P08684). The experiment in a line: biochemical.
A further series has as its target T2, human orexin 2 receptor (Homo sapiens, UniProt O43614).
T2 sequence (O43614 1-444): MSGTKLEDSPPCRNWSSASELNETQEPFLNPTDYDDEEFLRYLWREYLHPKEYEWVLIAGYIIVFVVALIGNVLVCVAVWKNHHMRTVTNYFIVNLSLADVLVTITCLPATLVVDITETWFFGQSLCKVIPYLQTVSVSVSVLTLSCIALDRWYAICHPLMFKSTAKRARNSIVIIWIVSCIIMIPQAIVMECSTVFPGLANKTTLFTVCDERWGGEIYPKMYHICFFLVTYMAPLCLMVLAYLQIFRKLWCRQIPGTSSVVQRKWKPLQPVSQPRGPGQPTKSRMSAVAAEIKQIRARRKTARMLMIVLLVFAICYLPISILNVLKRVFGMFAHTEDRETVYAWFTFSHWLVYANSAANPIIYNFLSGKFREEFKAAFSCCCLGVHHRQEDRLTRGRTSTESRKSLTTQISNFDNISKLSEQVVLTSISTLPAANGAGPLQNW
The experiment in a line: Human OX2 receptor radioligand ([3H]EMPA) competition binding assay. The following applies: for Selectivity (OX2R/OX1R): Figure 4b.

A further series concerns the target T3, orexin 2 receptors (Rattus norvegicus, UniProt P56719).
T3 sequence (P56719 1-460): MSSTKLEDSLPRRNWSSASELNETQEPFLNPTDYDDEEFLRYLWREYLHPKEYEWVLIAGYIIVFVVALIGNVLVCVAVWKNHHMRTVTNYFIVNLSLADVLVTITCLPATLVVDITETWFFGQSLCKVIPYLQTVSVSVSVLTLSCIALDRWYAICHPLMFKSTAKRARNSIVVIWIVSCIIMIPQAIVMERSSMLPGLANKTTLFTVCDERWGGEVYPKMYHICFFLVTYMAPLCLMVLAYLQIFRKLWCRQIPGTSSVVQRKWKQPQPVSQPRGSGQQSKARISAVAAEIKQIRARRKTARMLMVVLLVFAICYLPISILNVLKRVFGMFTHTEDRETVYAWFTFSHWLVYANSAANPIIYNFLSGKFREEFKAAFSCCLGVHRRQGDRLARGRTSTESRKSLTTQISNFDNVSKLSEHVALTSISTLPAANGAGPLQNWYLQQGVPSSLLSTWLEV
The experiment in a line: In vitro autoradiography in rat brain sections. As to conditions: for effect of blocker on radioactivity in OX2-rich brain regions: blocker 10 μM, autoradiography with [11C]1 or [11C]2, rat brain sections; for in vitro binding specificity: rat brain sections, autoradiography.

The target of the next series is CYP2C9 (Homo sapiens, UniProt P11712). The experiment in a line: biochemical.
CYP2C9, sequence (P11712 whole entry, species assumed): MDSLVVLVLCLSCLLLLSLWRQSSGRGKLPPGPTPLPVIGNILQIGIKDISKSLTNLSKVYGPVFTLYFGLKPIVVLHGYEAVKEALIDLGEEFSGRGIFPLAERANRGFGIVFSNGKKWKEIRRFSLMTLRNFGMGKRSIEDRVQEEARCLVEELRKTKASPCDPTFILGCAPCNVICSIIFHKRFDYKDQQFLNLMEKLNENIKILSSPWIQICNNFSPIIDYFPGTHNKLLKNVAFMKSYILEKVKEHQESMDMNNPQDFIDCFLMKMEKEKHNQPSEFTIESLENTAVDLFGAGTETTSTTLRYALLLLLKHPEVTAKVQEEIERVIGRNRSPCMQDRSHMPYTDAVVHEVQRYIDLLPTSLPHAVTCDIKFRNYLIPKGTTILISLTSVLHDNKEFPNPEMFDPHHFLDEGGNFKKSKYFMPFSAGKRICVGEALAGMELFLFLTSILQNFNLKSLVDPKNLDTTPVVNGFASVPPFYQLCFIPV
The next series concerns the target CYP2C19 (Homo sapiens, UniProt P33261). The experiment in a line: biochemical.
The next series addresses T4, CYP19A (Homo sapiens, UniProt P11511).
T4 sequence (P11511 1-503): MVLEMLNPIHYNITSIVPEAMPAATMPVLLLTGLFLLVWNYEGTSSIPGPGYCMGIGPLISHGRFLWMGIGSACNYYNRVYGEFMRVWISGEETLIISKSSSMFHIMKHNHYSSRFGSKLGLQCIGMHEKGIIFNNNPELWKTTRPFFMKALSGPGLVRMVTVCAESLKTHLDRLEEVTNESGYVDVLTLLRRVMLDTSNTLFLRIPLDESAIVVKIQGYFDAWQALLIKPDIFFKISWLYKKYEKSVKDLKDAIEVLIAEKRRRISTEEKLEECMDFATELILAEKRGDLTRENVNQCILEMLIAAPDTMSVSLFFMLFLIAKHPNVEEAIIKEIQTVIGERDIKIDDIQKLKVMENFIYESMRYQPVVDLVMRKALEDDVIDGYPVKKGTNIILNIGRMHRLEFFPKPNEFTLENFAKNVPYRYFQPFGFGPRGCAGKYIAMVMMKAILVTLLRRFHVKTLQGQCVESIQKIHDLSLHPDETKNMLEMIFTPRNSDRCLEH

In a further series the target is hERG (Homo sapiens, UniProt Q12809). The experiment in a line: biochemical.
hERG, sequence (Q12809 whole entry): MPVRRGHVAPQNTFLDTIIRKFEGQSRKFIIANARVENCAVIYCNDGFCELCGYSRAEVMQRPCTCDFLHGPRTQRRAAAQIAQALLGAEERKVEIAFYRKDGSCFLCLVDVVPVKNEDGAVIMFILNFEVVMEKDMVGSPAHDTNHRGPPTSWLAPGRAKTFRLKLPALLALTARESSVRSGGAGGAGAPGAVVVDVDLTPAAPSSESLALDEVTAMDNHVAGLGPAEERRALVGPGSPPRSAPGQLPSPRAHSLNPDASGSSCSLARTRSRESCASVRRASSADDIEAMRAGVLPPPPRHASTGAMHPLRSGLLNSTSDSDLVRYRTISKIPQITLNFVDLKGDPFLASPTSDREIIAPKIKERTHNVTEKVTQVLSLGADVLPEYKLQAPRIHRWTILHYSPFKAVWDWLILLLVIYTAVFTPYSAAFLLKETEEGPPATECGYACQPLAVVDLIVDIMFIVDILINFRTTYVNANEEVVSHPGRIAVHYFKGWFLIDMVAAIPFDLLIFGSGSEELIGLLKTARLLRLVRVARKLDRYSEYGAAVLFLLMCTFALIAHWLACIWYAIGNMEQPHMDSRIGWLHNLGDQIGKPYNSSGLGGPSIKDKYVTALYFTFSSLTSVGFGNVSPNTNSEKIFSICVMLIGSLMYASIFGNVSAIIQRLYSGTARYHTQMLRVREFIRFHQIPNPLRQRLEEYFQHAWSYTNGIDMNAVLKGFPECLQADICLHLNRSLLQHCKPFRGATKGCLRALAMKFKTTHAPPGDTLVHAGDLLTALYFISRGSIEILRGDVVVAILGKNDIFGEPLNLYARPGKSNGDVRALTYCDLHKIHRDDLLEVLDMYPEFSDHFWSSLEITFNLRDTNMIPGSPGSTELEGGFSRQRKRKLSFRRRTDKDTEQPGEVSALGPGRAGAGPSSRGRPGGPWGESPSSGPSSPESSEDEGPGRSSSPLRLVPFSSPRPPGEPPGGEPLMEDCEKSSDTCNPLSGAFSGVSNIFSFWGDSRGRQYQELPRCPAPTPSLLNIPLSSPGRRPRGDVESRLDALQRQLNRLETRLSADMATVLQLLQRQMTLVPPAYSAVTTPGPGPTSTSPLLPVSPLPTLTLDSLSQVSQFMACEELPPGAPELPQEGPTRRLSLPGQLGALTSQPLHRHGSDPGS
The nature of series [2]: Stability of radiotracer in saline. The class given is physicochemical. As to conditions: within 90 min. The procedure:
Based on the favorable in vitro pharmacological and ADME properties, compounds 1 and 2 were labeled with carbon-11 and evaluated as OX2 PET radioligands. […] The reaction mixtures were then diluted with the HPLC buffer and purified by a semipreparative reverse HPLC to give [^11C]1 and [^11C]2 in 71% and 20% radiochemical yields (decay-corrected) with the molar activities of 210 GBq/μmol and 185 GBq/μmol, respectively.

The next series concerns rat brain. Briefly: Dynamic PET imaging in Sprague-Dawley rats.
For a further series, the system named is OX2R. On the set-up: method as in PMID 19751316. The following applies: cited from earlier work.
[3] abbreviates: SD rats pretreated with Elacridar 3 mg/kg 20 min before tracer.

CYP3A4, sequence (P08684 whole entry, species assumed): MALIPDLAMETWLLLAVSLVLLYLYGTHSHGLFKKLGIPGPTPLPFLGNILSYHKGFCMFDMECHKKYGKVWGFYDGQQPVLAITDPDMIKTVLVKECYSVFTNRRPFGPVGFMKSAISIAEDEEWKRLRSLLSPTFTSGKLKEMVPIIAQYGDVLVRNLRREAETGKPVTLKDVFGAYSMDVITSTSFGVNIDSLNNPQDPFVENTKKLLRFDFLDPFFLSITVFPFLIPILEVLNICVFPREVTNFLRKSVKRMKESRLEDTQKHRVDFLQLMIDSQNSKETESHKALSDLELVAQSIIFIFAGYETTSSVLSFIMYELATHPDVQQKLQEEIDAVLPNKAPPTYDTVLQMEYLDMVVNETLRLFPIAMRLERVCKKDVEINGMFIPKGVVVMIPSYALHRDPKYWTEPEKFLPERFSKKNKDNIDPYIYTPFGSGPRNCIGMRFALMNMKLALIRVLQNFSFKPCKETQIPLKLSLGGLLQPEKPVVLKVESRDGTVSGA
CYP2C19, sequence (P33261 whole entry, species assumed): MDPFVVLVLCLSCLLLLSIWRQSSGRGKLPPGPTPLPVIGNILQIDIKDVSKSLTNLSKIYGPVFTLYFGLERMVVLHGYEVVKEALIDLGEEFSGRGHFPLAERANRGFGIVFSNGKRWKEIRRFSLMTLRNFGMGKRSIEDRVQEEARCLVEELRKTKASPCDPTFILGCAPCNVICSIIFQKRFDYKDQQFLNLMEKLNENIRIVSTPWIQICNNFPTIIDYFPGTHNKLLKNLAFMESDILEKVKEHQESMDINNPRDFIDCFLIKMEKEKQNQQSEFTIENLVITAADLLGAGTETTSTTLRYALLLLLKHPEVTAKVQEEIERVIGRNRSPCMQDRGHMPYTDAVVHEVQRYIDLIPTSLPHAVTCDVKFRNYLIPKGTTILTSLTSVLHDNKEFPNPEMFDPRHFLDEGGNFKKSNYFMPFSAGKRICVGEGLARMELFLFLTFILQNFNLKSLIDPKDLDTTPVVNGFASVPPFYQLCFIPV
CYP2D6, sequence (P10635 whole entry, species assumed): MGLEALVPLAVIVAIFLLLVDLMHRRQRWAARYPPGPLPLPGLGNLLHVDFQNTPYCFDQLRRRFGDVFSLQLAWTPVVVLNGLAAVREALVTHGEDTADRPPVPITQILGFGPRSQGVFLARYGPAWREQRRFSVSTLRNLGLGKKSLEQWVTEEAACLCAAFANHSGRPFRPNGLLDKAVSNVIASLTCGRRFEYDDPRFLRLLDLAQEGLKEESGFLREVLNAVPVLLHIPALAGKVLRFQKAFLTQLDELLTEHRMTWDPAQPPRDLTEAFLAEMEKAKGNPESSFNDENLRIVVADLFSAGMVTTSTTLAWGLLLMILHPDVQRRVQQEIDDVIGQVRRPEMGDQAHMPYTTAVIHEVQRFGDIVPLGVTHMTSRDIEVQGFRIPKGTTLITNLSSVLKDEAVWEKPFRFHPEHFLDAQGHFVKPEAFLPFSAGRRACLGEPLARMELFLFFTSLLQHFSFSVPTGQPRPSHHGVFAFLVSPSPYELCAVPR
Protocol for CYP1A2: (§1) Human OX2 receptor binding (agonist radioligand) assays were finished by Gifford
(§2) Bioscience Limited. Competition binding assays were carried out in 96-well polypropylene
(§3) plates in a final volume of 250 µL per well. To each well were added 150 µL Human OX2
(§4) Receptor Membranes (MultiSpan Inc, MC1034), 50 µL of non-specific or test compound
(§5) or buffer (50 mM Tris, 5 mM MgCl2, 0.1 mM EDTA, pH 7.4), and 50 µL radioligand
(§6) ([3H]EMPA) solution in the buffer. The plate was incubated at 30 °C for 60 minutes with
(§7) gentle agitation. The incubation was stopped by vacuum filtration onto presoaked (Tris
(§8) buffer with PEI) GF/C filters using a 96-well FilterMate™ harvester, followed by 5 washes
(§9) with ice-cold wash buffer (50 mM Tris, 5 mM MgCl2, 0.1 mM EDTA, pH 7.4). Filters were
(§10) then dried under a warm air stream and sealed in polyethylene, a scintillation cocktail was
(§11) specific binding. Data were fitted using the non-linear curve fitting routines in Prism®
(§12) (Graphpad Software Inc) to determine IC50. Ki was subsequently calculated using the
(§13) CYP enzymes and hERG inhibition assays were finished by Reaction Biology Corporation.
Description for CYP2C19: as §13
Protocol for CYP2C9: as §1, §2, §3, §4, §5, §6, §7, §8, §9, §10, §11, §12, §13
Description for CYP2D6: as §13
Description for CYP3A4: as §13
Protocol for hERG: as §1, §2, §3, §4, §5, §6, §7, §8, §9, §10, §11, §12, §13
Protocol for human orexin 2 receptor: as §1, §2, §3, §4, §5, §6, §7, §8, §9, §10, §11, §12, §13
Protocol for orexin 2 receptors: 2.5 In vitro autoradiography
The method for in vitro autoradiography was slightly modified from previous reports. 5 Rat
brain was cut into 20 μm sections, stored at −80 °C, and ready for the experiment. The rat
brain sections were preincubated with Tris−HCl buffer (50 mM) containing MgCl2 (2 mM)
and CaCl2 (1.2 mM) for 20 min at ambient temperature, followed by incubation with [11C]1
added to incubation solution. Then the brain sections were washed with ice-cold buffer for
three times and dipped in cold distilled water for 10 s. The brain sections were dried with
cold air. The exposure time for the phosphor plate in the autoradiography study is 1 h .

One may read the Ki as the equilibrium dissociation constant of an inhibitor or competing ligand from its target. Higher therefore signals a looser hold on the target. For `CCN(Cc1ccccc1)C(=O)CN(c1ccccc1OC)S(=O)(=O)c1ncccc1C` [Compound 1], the IC50 was more than 5 µM on CYP1A2; more than 5 µM on CYP2D6; more than 5 µM at CYP3A4; 0.0071 µM on human orexin 2 receptor; more than 5 µM at CYP2C9; more than 5 µM on CYP2C19. In addition, the IC50 against CYP19A was more than 5 µM; on hERG, more than 100 µM. Besides, the Ki in [1] amounted to 0.253 µM; at human orexin 2 receptor, 0.0036 µM. At human orexin 2 receptor, the “target selectivity OX2/OX1” value is recorded as more than 600 folds. Besides, the “Selectivity (OX2R/OX1R)” value on human orexin 2 receptor was found to be 601. The “effect of blocker on radioactivity in OX2-rich brain regions” value on orexin 2 receptors is given as “remarkably diminished the radioactivity”.
On to `CCN(Cc1ccccc1)C(=O)CN(c1ccc(OC)nc1)S(=O)(=O)c1ncccc1C` [Compound 2], for which the IC50 at CYP1A2 is more than 5 µM; at CYP2D6 it was more than 5 µM; on CYP3A4 it was more than 5 µM; at human orexin 2 receptor (read-out: IC50/OX2, [3H]EMPA competition, human OX2 receptor membranes), 0.0044 µM; against CYP2C9, more than 5 µM; on CYP2C19 it was more than 5 µM. Besides, the IC50 is more than 5 µM against CYP19A and more than 100 µM against hERG. Also, the Ki on human orexin 2 receptor stood at 0.0022 µM. Also, the “target selectivity OX2/OX1” value at human orexin 2 receptor is recorded as more than 600 folds. For the same molecule, the “Selectivity (OX2R/OX1R)” value at human orexin 2 receptor was determined as 1220. In addition, the “effect of blocker on radioactivity in OX2-rich brain regions” value on orexin 2 receptors is recorded as “remarkably diminished the radioactivity”.
With `CCN(Cc1ccccc1)C(=O)CN(c1ccccc1O[11CH3])S(=O)(=O)c1ncccc1C` [[^11C]1], the stability in saline result in series [2] was “stable”. The “in vitro binding specificity” value at orexin 2 receptors was “good to excellent in vitro binding specificity”.
On to `CCN(Cc1ccccc1)C(=O)CN(c1ccc(O[11CH3])nc1)S(=O)(=O)c1ncccc1C` [[^11C]2], for which the “highest radioactivity levels in hippocampus and cerebellum” value in the series with rat brain (setting [3]) is reported as 0.9 SUV; with rat brain (baseline, SD rats, 2 min postadministration of tracer), “around 0.4 SUV”. For the same molecule, the “radioactivity level after washout in hippocampus and cerebellum” value is on record as 0.3 SUV with rat brain (setting [3]) and 0.2 SUV in the series with rat brain (baseline, SD rats, 60 min scan). Also, the brain uptake entry with rat brain (baseline PET, SD rats) is “poor brain uptake”. In addition, the “bound radioactivity levels in hippocampus and cerebellum after blocking” value with rat brain (preadministration of EMPA 1 mg/kg i.v., SD rats) is “did not remarkably reduce”. Also, the stability in saline result in series [2] is on record as “stable”. The “in vitro binding specificity” value at orexin 2 receptors is “good to excellent in vitro binding specificity”.
As to “orexin-B: endogenous neuropeptide ligand, a 28 amino acid peptide”, the “selectivity toward OX2R against OX1R” value in the series with OX2R is more than 10 folds.
